Experimental data published in article PMC11148078, “Potent activity of polymyxin B is associated with long-lived super-stoichiometric accumulation mediated by weak-affinity binding to lipid A” (Nature Communications, 2024).
Entries after “also recorded” stand apart in the source; their conditions may differ. Read-outs that look alike come from different tables or passages of the source. Bridge positions count the residues as written; N and C are the ends. Square brackets hold non-standard residues; d marks the D form. Peptide text beside a SMILES is read from it. * marks the point of attachment. X1 = CC[C@H](C)CCCCC(=O)*; Dab = NCC[C@H](N)C(=O)O

Columns and labels:
[1] = tested on: E. coli PmrA^G53E+rifampicin; experiment: Rifampicin potentiation / outer membrane permeability, E. coli PmrA^G53E; assay type: cell-based
Protocol: (§1) Bacterial strains and plasmids are listed in SI Table S5. LB growth media was prepared according to manufacturer’s instructions and supplemented with 0.2% arabinose and carbenicillin (50 μg/mL) for the strains containing pBAD24-mcr1 plasmid. Cultures were started by inoculating 3 ml LB with 1–2 colonies from fresh overnight plates and grown at 37 °C until in log phase. Modified minimal inhibitory concentration (MIC) assays were performed in 96-well round bottom polystyrene plates (Corning) with a final volume of 100 µl in LB supplemented with tween-80 at 0.0005%. […] Polymyxin B sulfate (TCI Co. Ltd), polymyxin B nonapeptide (PMBN) (Sigma), and brevicidine (Genentech) were diluted directly in the assay plates. Bacteria were diluted in LB with tween-80 0.0005% and added to a final OD600 of 0.0005. Growth was measured via OD600 on a SpectraMax M5 plate reader after overnight static growth at 37 °C with humidity.

wild-type E. coli cells = experiment: Whole cell SPR, wild-type E. coli; assay type: binding
Protocol: Bacterial strains were grown in LB or LB with 0.2% arabinose and carbenicillin (50 μg/mL) to log phase (OD600 approximately 0.4–0.6), centrifuged for 10 min at 2500 × g (3500 rpm using a tabletop centrifuge), and re-suspended in PBS to a final OD600 of approximately 5. SPR on whole bacterial cells was performed and analyzed as described for OMVs on C1 chip, but with an additional carry-over wash prior to the capture. Regeneration of the chip after whole cell binding also required additional steps ([…] flow rate): (1) PBS supplemented with 32 mM MgCl2 for 120 s, (2) 2.5 M NaCl for 30 s, (3) 0.5% SDS (Desorb 1, Cytiva) for 60 s with carry over controls between.

E. coli WT+rifampicin = experiment: Rifampicin potentiation / outer membrane permeability, wild-type E. coli; assay type: cell-based
Protocol: as §1

wt-OMVs = experiment: Single-cycle kinetic SPR binding to immobilized wt-OMVs; design: species or system E. coli; settings: for SPR binding in presence of excess Mg^2+: 32 mM Mg^2+; for SPR binding profile: serial doubling injections, C1 chip
Protocol: Polymyxin B was covalently attached to a C1 chip (Series S Sensor Chip C1, Cytiva) using an amine coupling kit (Cytiva). Cartoon in Fig. 1A created with BioRender (biorender.com). Briefly, equal amounts of reagents N-hydroxysuccinimide and 1-ethyl-3-(3-dimethylaminopropyl) carbodiimide hydrochloride were mixed as per manufacturer’s instructions and immediately added to the gold chip surface for 2 min, washed with distilled deionized water, and dried. Sufficient polymyxin B (1 mM in 1 M HEPES buffer, pH 8) was added to cover the chip surface, incubated at room temperature for 1 h, washed as before, and then incubated with 1 M ethanolamine hydrochloride-NaOH, pH 8.5, for 1 min. The chip surface was washed with water, dried as previously described, immediately loaded into a Biacore S200, and primed with running buffer (described below) to equilibrate the system. C1 chips were used for multiple runs and discarded upon removal from the Biacore S200.
SCK C1-chip SPR experiments were performed in running buffer (Dulbecco’s phosphate-buffered salt solution 1x without calcium or magnesium (Fisher Scientific), pH 7.4, with 0.0005% tween-80 (Sigma) passed through a 0.2 µm filter) unless otherwise indicated. Inclusion of tween-80 prevented loss of polymyxin to the plastics[34] (also see Supplementary Information Methods). For experiments with brevicidine, which was suspended in DMSO, 0.125% DMSO was included in the running buffer. OMVs were diluted from frozen stocks to approximately 20–30 µg/ml protein in the OMV buffer. Capture of OMVs was performed at a low flow rate ([…]) for 300 s over the test channel(s) followed by a 300 s stabilization period. All subsequent steps were at a flow rate of […]. For single cycle kinetics, two-fold dilutions were injected over the channel(s) loaded with OMVs and a reference channel without OMVs for 30 s contact and 480 s dissociation. To regenerate chips, 0.5% SDS (desorb 1, Cytiva) was injected into all channels for 60 s at […] twice, with an extra buffer wash and four carry-over control steps to prevent residual SDS from disrupting the following cycle.
All single-cycle kinetic SPR traces shown were double-referenced (unless indicated) within the Biacore S200 Evaluation Software 1.0, exported as a.txt file, and imported (decimated) into GraphPad Prism (version 9.3.1 for Mac, GraphPad Software, San Diego, CA). For clarity, in some cases individual outlier data points (at buffer transitions) were removed when this would not change the overall data or conclusions.

E. coli mcr-1+rifampicin = experiment: Rifampicin potentiation / outer membrane permeability, E. coli mcr-1; assay type: cell-based
Protocol: as §1

CC(C)C[C@@H]1NC(=O)[C@@H](Cc2ccccc2)NC(=O)[C@H](CCN)NC(=O)[C@@H](NC(=O)[C@H](CCN)NC(=O)[C@@H](N)[C@@H](C)O)CCNC(=O)[C@H]([C@@H](C)O)NC(=O)[C@H](CCN)NC(=O)[C@H](CCN)NC1=O [PMBN] (H-T[Dab][Dab][Dab][dF]L[Dab][Dab]T; lactam 3-C)
MIC in presence of rifampicin [1]: 20000 nM | SPR binding profile (wild-type E. coli cells): exhibited only weak, saw-tooth binding | outer membrane permeabilization / rifampicin potentiation (E. coli WT+rifampicin): still permeabilizes the outer membrane to rifampicin; also recorded: can still permeabilize the outer membrane | MIC in presence of rifampicin (E. coli WT+rifampicin; rifampicin 1.56 µM, LB + 0.0005% tween-80, overnight 37 °C): 78 nM | SPR binding in presence of excess Mg^2+ (wt-OMVs): eliminated | SPR binding profile (wt-OMVs): exhibited only weak, saw-tooth binding; also recorded: exclusively produces rapidly reversible binding | MIC in presence of rifampicin (E. coli mcr-1+rifampicin): 2500 nM

CC[C@H](C)CCCCC(=O)N[C@@H](CCN)C(=O)N[C@H](C(=O)N[C@@H](CCN)C(=O)N[C@H]1CCNC(=O)[C@H]([C@@H](C)O)NC(=O)[C@H](CCN)NC(=O)[C@H](CCN)NC(=O)[C@H](CC(C)C)NC(=O)[C@@H](Cc2ccccc2)NC(=O)[C@H](CCN)NC1=O)[C@@H](C)O [Polymyxin B] (X1-[Dab]T[Dab][Dab][Dab][dF]L[Dab][Dab]T; lactam 4-C (inferred); N-terminus assumed)
MIC in presence of rifampicin [1]: 1 nM | outer membrane permeabilization / rifampicin potentiation [1]: still potentiated the activity of an antibiotic normally excluded by the outer membrane, rifampicin | SPR binding profile (wild-type E. coli cells): same polymyxin B binding profiles were observed | MIC in presence of rifampicin (E. coli WT+rifampicin): <0.02 nM | SPR binding in presence of excess Mg^2+ (wt-OMVs): reduced to a weak transient saw-tooth profile without stably bound polymyxin B | effect of EDTA on SPR binding (wt-OMVs; EDTA 4 mM, maximum 625 nM, n=3): had no effect on polymyxin binding | SPR binding profile (wt-OMVs): dominated by the accumulation of tightly bound polymyxin B and a superimposed saw-tooth profile associated with transient binding | MIC in presence of rifampicin (E. coli mcr-1+rifampicin): 1 nM | outer membrane permeabilization / rifampicin potentiation (E. coli mcr-1+rifampicin): still potentiated the activity of an antibiotic normally excluded by the outer membrane, rifampicin
